Results from US9410100B2, “Tritylated ethers” (ANGUS Chemical Company, priority 2012, dated 2016).

Key:
[1] = Solubility studies of functionalized tritylated phenol ethers in solvents; format: physicochemical
Experimental: The solubility properties of functionalized tritylated phenol ethers were determined by mixing 0.1 gram samples of sample in 0.9 grams of solvent. The mixtures were warmed at 60° C. for a few minutes to make homogeneous solutions. The solutions were cooled back to room temperature, and then they were placed into a freezer at −10° C. The solutions were checked daily to see if crystallization had occurred.

OCCCCCCOc1ccc(C(c2ccccc2)(c2ccccc2)c2ccccc2)cc1OCCCCCCO [Ex. 4, 6,6′-((4-trityl-1,2-phenylene)bis(oxy))bis(hexan-1-ol)]
Solubility at RT ([1]; 10 wt % in 1-Octanol, cooled to room temperature): soluble | Solubility at 60 C. ([1]; 10 wt % in 1-Octanol, warmed at 60 C): soluble | Solubility at RT ([1]; 10 wt % in AROMATIC 200, cooled to room temperature): insoluble | Solubility at 60 C. ([1]; 10 wt % in AROMATIC 200, warmed at 60 C): insoluble | Solubility at RT ([1]; 10 wt % in DMAc, cooled to room temperature): soluble | Solubility at 60 C. ([1]; 10 wt % in DMAc, warmed at 60 C): soluble | Solubility at RT ([1]; 10 wt % in DPGME, cooled to room temperature): soluble | Solubility at 60 C. ([1]; 10 wt % in DPGME, warmed at 60 C): soluble | Solubility at RT ([1]; 10 wt % in NMP, cooled to room temperature): soluble | Solubility at 60 C. ([1]; 10 wt % in NMP, warmed at 60 C): soluble | Solubility at RT ([1]; 10 wt % in Tetralin, cooled to room temperature): insoluble | Solubility at 60 C. ([1]; 10 wt % in Tetralin, warmed at 60 C): soluble | melting point: 81 to 84 °C

OCCCCCCOc1ccc(C(c2ccccc2)(c2ccccc2)c2ccccc2)cc1 [compound 1, 6-(4-Tritylphenoxy)hexan-1-ol]
melting point: 158 to 161 °C
